{"source": "patent US9439438B2", "about": "(priority 2011, dated 2016)", "key": {"[1]": {"test_system": "vesicular stomatitis virus G protein", "format": "cell-based"}, "HeLa cells [2]": {"test_system": "HeLa cells"}, "[3]": {"settings": "in vivo; cited from earlier work"}, "mice [4]": {"test_system": "mice", "settings": "mouse, in vivo, ip"}, "HeLa cells [5]": {"test_system": "HeLa cells", "format": "cell-based"}, "mice [6]": {"test_system": "mice", "settings": "mouse, in vivo"}, "GPP130 [7]": {"biological_target": "T1, GPP130 (Homo sapiens, UniProt O00461)", "T1 sequence (O00461 1-696)": "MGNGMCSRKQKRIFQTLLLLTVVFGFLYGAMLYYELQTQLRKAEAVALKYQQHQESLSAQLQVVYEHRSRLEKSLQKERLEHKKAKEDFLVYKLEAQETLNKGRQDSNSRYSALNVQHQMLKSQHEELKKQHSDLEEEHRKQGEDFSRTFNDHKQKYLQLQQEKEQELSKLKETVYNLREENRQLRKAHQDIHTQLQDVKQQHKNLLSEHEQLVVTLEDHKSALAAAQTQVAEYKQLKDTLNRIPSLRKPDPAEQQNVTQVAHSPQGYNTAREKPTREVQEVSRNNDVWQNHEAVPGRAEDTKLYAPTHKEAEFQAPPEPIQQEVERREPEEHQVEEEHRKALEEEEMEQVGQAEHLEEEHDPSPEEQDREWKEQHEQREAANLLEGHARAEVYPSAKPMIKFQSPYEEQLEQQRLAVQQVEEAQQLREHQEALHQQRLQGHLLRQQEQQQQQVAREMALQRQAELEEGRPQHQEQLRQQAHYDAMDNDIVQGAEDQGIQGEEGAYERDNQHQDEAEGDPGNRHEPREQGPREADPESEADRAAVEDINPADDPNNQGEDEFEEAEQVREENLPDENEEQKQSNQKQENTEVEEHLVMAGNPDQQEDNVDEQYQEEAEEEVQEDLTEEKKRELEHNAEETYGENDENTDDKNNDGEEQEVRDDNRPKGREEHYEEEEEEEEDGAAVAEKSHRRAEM", "format": "cell-based"}, "HeLa cells [8]": {"test_system": "HeLa cells", "format": "cell-based", "remark": "listed apart in the source"}, "mice [9]": {"test_system": "mice", "settings": "mouse, in vivo, ip, 100 mg/kg"}, "HeLa cells [10]": {"test_system": "HeLa cells", "remark": "listed apart in the source"}, "GPP130 [11]": {"biological_target": "T1, GPP130", "format": "cell-based", "remark": "listed apart in the source"}, "HeLa cells [12]": {"test_system": "HeLa cells", "format": "cell-based", "remark": "listed apart in the source"}, "HeLa cells [13]": {"test_system": "HeLa cells", "format": "cell-based", "remark": "listed apart in the source"}}, "note": "Read-outs that look alike come from different tables or passages of the source.", "data": [{"smiles": "[Cl][Mn][Cl]", "note": "[Mn, MnCl2]", "values": [{"measurement": "ER-to-cell surface trafficking of vesicular stomatitis virus G protein", "setting": "[1]", "result": "did not affect"}, {"measurement": "cell viability (MTT)", "setting": "HeLa cells [2]", "result": "did not affect cell viability"}, {"measurement": "clearance from the system", "setting": "[3]", "result": "cleared from the system within hours"}, {"measurement": "apparent LD50", "setting": "mice [4]", "result": 125, "unit": "mg/kg"}, {"measurement": "paralysis and lethality", "setting": "mice [4]; 100 mg/kg", "result": "Paralysis and lethality were not seen at any time"}, {"measurement": "paralysis and lethality", "setting": "mice [4]; 150 mg/kg", "result": "got paralyzed within a few hours and were then euthanized"}, {"measurement": "paralysis and lethality", "setting": "mice [4]; 250 mg/kg", "result": "got paralyzed within minutes and died"}, {"measurement": "paralysis and lethality", "setting": "mice [4]; 500 mg/kg", "result": "got paralyzed within minutes and died"}, {"measurement": "cellular STxB level (toxin degradation)", "setting": "HeLa cells [5]", "result": "dramatic loss of STxB"}, {"measurement": "time at which STxB is degraded in Mn-treated cells", "setting": "HeLa cells [5]", "result": "1 to 2", "unit": "h"}, {"measurement": "STx1-induced renal damage (kidney histology)", "setting": "mice [6]", "result": "no STx1-induced renal damage"}, {"measurement": "complete protection against lethal STx1 evident", "setting": "mice [6]", "result": "not"}, {"measurement": "health and survival after lethal STx1", "setting": "mice [6]", "result": "all Mn-treated animals remained healthy and survived"}, {"measurement": "protection against lethal STx1", "setting": "mice [6]", "result": "Complete protection"}, {"measurement": "sorting of STxB into endosomal tubules", "setting": "GPP130 [7]", "result": "abolished"}, {"measurement": "localization or trafficking of GP73, TGN46 and Lamp2", "setting": "HeLa cells [8]", "result": "did not alter"}, {"measurement": "body weight, locomotor activity and demeanor", "setting": "mice [9]", "result": "significantly lost weight, exhibited a depressed, lethargic attitude accompanied with diminished locomotor activity"}, {"measurement": "STx1 concentration, relative to the LD50, at which 50% cell death was not evident", "setting": "HeLa cells [10]", "result": "> 2000", "unit": "fold"}, {"measurement": "estimated protection factor", "setting": "HeLa cells [10]", "result": 3800}, {"measurement": "protection against STx-induced cell death", "setting": "HeLa cells [10]", "result": 3800, "unit": "fold"}, {"measurement": "viability with Mn by itself", "setting": "HeLa cells [10]", "result": "did not compromise viability"}, {"measurement": "GPP130 in cells after Mn", "setting": "GPP130 [11]", "result": "lacked GPP130"}, {"measurement": "STxB reaching the ER (STxB-KDEL)", "setting": "GPP130 [11]", "result": "STxB did not reach the ER"}, {"measurement": "STxB trafficking from the cell surface to the Golgi", "setting": "GPP130 [11]", "result": "STxB accumulated in peripheral punctate structures resembling endosomes"}, {"measurement": "epidermal growth factor (EGF) internalization and degradation", "setting": "HeLa cells [12]", "result": "did not affect"}, {"measurement": "cholera toxin B-subunit (CTxB) trafficking", "setting": "HeLa cells [13]", "result": "no difference between Mn-treated and control cells"}]}]}
